How the values were obtained:
Test in all cases: biochemical
Parameters in all cases: DiscoverX kinase panel, active-site competition binding (KINOMEscan type), percent of control at one concentration
Details in all cases: competition binding, percent of control
[1] = target: T1, ABL1(M351T)-phosphorylated (Homo sapiens, UniProt P00519, M351T)
T1 construct: phosphorylated

BMPR1A = BMPR1A (Homo sapiens, UniProt P36894)
BRSK1 = BRSK1 (Homo sapiens, UniProt Q8TDC3)
CDK9 = CDK9 (Homo sapiens, UniProt P50750)
CSK = CSK (Homo sapiens, UniProt P41240)
CSNK1E = CSNK1E (Homo sapiens, UniProt P49674)
CTK = target: T2, CTK (Homo sapiens, UniProt P42679)
T2 construct: gene MATK

DLK = target: T3, DLK (Homo sapiens, UniProt Q12852)
T3 construct: gene MAP3K12

EGFR(L858R,T790M) = EGFR(L858R,T790M) (Homo sapiens, UniProt P00533, L858R/T790M)
EPHB2 = EPHB2 (Homo sapiens, UniProt P29323)
ERK4 = target: T4, ERK4 (Homo sapiens, UniProt P31152)
T4 construct: gene MAPK4

FGFR3(G697C) = FGFR3(G697C) (Homo sapiens, UniProt P22607, G697C)
FLT1 = FLT1 (Homo sapiens, UniProt P17948)
HIPK4 = HIPK4 (Homo sapiens, UniProt Q8NE63)
INSR = INSR (Homo sapiens, UniProt P06213)
PAK7 = target: T5, PAK7 (Homo sapiens, UniProt Q9P286)
T5 construct: gene PAK5

PLK3 = PLK3 (Homo sapiens, UniProt Q9H4B4)
PRKD2 = PRKD2 (Homo sapiens, UniProt Q9BZL6)
TIE2 = target: T6, TIE2 (Homo sapiens, UniProt Q02763)
T6 construct: gene TEK

TTK = TTK (Homo sapiens, UniProt P33981)
YSK4 = target: T7, YSK4 (Homo sapiens, UniProt Q56UN5)
T7 construct: gene MAP3K19
T7 sequence (Q56UN5 whole entry): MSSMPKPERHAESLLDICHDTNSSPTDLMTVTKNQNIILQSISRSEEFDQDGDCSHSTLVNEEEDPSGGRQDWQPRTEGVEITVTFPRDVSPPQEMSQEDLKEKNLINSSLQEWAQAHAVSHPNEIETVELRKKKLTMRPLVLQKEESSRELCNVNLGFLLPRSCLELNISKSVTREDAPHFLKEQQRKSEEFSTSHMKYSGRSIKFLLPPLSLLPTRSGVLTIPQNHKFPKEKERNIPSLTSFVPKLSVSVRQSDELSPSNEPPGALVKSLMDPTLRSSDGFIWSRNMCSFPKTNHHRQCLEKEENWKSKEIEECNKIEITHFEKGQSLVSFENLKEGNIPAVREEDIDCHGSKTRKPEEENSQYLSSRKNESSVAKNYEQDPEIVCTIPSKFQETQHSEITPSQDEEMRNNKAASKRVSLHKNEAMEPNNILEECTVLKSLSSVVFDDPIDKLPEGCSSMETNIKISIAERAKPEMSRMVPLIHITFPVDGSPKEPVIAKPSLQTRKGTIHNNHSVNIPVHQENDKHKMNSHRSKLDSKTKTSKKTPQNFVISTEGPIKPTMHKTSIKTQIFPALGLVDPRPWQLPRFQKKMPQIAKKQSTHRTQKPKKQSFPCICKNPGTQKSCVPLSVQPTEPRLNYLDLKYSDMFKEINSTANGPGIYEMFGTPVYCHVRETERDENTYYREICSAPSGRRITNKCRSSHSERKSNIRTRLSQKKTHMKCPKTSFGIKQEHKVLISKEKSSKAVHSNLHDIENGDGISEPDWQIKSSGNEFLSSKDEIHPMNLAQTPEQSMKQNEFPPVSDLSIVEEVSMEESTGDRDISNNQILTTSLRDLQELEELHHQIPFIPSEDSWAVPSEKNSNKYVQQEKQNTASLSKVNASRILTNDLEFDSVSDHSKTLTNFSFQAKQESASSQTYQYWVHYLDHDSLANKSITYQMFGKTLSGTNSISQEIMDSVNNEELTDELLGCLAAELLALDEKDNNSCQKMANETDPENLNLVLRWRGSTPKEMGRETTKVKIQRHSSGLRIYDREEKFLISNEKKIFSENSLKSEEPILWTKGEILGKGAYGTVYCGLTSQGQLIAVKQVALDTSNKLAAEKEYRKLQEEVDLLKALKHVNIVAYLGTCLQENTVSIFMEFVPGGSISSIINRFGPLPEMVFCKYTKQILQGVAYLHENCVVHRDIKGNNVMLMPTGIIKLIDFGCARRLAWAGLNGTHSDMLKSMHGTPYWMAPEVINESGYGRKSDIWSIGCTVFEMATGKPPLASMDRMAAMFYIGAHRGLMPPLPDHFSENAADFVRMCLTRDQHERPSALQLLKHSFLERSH

T6 sequence (Q02763 whole entry): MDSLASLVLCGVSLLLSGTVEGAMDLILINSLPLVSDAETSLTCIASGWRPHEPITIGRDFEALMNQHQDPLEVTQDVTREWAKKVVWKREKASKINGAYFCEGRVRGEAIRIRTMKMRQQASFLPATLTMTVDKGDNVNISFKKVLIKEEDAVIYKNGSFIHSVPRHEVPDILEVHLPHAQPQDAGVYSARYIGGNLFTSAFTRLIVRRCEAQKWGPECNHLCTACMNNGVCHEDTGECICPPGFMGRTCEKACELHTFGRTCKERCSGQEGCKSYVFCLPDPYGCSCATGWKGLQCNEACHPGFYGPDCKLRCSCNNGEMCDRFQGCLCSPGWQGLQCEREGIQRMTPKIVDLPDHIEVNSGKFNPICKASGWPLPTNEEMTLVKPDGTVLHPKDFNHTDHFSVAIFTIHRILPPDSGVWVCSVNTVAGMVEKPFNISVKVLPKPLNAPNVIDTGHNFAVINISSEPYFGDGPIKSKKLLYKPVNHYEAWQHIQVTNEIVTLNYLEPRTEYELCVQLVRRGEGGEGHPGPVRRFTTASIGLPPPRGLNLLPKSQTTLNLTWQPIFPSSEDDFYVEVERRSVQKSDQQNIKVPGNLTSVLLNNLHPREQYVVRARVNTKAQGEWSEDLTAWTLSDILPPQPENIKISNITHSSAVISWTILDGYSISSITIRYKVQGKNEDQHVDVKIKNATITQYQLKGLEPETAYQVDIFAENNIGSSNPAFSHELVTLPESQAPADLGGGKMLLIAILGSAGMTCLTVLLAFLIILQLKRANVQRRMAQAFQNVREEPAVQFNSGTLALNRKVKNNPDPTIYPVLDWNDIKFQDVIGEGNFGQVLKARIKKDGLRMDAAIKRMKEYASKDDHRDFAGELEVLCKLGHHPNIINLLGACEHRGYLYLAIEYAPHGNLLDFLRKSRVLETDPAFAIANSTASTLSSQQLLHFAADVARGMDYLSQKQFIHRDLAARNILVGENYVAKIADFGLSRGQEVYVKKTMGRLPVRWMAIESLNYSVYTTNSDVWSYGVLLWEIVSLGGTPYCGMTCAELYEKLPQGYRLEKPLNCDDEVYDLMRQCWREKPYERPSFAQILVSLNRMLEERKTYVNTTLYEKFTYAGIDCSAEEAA
CDK9, sequence (P50750 whole entry): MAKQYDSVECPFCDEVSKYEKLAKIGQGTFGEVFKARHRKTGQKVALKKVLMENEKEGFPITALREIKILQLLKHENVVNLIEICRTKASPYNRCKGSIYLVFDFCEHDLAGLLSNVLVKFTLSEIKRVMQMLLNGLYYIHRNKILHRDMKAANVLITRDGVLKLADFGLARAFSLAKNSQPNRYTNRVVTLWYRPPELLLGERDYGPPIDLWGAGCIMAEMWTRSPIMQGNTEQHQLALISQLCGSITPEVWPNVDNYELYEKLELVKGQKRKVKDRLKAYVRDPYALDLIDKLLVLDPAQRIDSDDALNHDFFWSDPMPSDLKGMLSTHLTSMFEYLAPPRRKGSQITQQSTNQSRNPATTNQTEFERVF
EPHB2, sequence (P29323 whole entry): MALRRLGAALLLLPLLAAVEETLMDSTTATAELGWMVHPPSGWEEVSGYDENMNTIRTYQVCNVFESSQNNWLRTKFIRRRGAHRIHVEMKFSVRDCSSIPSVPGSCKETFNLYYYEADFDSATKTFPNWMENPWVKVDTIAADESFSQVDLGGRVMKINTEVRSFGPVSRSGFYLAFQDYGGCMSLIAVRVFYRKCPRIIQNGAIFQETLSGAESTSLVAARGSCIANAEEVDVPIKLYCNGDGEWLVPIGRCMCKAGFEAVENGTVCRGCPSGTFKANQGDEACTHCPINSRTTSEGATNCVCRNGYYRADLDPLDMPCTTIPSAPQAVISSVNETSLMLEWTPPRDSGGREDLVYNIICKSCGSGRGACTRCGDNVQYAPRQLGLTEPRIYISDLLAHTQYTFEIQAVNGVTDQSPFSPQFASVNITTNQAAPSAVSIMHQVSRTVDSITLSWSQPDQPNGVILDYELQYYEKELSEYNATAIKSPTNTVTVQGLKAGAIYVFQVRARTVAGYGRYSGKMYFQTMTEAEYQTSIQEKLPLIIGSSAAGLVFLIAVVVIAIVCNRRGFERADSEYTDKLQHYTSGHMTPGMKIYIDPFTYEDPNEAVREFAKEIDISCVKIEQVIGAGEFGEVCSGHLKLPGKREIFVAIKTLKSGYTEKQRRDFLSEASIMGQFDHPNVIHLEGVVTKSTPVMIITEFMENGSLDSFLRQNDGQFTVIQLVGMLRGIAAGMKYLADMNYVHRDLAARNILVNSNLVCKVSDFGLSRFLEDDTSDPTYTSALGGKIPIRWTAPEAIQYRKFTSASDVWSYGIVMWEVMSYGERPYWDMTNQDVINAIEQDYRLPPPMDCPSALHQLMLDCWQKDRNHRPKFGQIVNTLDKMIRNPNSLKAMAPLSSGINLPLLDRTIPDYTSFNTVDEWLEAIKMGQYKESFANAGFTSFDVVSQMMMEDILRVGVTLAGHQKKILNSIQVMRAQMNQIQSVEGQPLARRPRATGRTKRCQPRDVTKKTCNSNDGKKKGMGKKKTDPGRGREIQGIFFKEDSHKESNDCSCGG
T2 sequence (P42679 whole entry): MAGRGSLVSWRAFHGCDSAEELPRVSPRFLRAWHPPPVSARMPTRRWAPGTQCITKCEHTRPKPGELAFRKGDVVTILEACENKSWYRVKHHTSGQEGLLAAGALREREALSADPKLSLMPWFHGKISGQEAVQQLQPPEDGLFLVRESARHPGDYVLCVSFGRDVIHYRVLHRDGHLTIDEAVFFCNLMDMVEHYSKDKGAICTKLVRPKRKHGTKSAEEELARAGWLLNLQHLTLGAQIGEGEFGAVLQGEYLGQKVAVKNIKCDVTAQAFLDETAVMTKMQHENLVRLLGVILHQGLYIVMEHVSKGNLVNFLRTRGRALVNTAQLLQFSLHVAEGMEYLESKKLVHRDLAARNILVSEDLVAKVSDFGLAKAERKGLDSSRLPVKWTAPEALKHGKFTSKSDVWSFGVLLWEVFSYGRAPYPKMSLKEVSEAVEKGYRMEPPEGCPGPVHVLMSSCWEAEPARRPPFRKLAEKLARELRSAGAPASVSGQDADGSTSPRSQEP
HIPK4, sequence (Q8NE63 whole entry): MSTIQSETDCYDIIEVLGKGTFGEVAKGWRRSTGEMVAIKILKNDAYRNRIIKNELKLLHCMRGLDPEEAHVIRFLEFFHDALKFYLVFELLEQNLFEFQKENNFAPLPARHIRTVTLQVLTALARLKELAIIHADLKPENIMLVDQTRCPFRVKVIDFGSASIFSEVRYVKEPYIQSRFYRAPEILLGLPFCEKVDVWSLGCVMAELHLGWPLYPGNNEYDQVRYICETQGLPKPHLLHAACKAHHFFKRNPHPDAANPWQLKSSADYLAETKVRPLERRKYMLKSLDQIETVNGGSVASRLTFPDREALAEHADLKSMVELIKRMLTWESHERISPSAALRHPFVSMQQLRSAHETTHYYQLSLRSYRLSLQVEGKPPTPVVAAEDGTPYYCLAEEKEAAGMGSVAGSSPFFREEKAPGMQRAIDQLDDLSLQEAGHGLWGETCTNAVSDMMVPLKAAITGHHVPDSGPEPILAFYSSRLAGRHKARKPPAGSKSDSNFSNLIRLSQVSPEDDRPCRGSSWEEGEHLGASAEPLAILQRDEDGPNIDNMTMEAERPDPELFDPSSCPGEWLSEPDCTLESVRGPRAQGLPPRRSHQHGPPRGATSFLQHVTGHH

## COc1cc2c(cn1)N(C)C(=O)[C@@H](NC(=O)c1nc3n(n1)[C@H](c1ccccc1)CC3)CC2 [GNE684, (S)-N-((S)-7-methoxy-1-methyl-2-oxo-2,3,4,5-tetrahydro-1H-pyrido[3,4-b]azepin-3-yl)-5-phenyl-6,7-dihydro-5H-pyrrolo[1,2-b][1,2,4]triazole-2-carboxamide]
[1]
  remaining binding at 10 µM: 100%
BMPR1A
  remaining binding at 10 µM: 91%
BRSK1
  remaining binding at 10 µM: 100%
CDK9
  remaining binding at 10 µM: 97%
CSK
  remaining binding at 10 µM: 100%
CSNK1E
  remaining binding at 10 µM: 74%
CTK
  remaining binding at 10 µM: 93%
DLK
  remaining binding at 10 µM: 100%
EGFR(L858R,T790M)
  remaining binding at 10 µM: 100%
EPHB2
  remaining binding at 10 µM: 82%
ERK4
  remaining binding at 10 µM: 96%
FGFR3(G697C)
  remaining binding at 10 µM: 88%
FLT1
  remaining binding at 10 µM: 100%
HIPK4
  remaining binding at 10 µM: 100%
INSR
  remaining binding at 10 µM: 90%
PAK7
  remaining binding at 10 µM: 90%
PLK3
  remaining binding at 10 µM: 89%
PRKD2
  remaining binding at 10 µM: 100%
TIE2
  remaining binding at 10 µM: 92%
TTK
  remaining binding at 10 µM: 100%
YSK4
  remaining binding at 10 µM: 92%
